The values that follow come from patent publication US10647687B2, “Spiropyrazine derivatives as inhibitors of non-apoptotic regulated cell-death” (Helmholtz Zentrum München Deutsches Forschungszentrum für …, priority 2014, dated 2020).

One series deals with SH-SY5Y cells. Kind of series: Specificity: TNF-alpha-induced apoptosis in SH-SY5Y cells (Example B.3). In kind it is cell-based, human. Conditions: compound 1 μM, TNF-alpha 10 ng/mL, FIG. 1. The protocol:
SH-SY5Y cells were propagated and seeded in 96-well plates, together with compound N-1, N-2, N-10 of Table 1-N (FIG. 1A), compound O/S-6 or O/S-3 of Table 1-O/S (FIG. 1B), or compound C-12, C-91, or C-205 of Table 1-C (FIG. 1C) (each 1 μM) and TNF-alpha was added (final concentration: 10 ng/mL) to induce apoptosis. The apoptosis and pan-caspase inhibitor z-vad (final concentration: 50 μM) and the necroptosis inhibitor Necrostatin-1 (Nec-1; final concentration: 5 μM) were used for comparison. Control wells were established with vehicle only (DMSO), with and without treatment with TNF-alpha to induce apoptosis. Cells were incubated, and cell survival was detected and quantified. Percentage cell survival after TNF-alpha-induced apoptosis is shown (error bars indicate standard deviation (SD)).
Briefly, SH-SY5Y cells were propagated and seeded in 96-well plates, together with the compound to be tested (1 μM), generally as described in Example B.1, except they were seeded at 1,000 cell/well and instead of BSO, TNF-alpha (Invitrogen) was added to a final concentration of 10 ng/mL to induce apoptosis. The apoptosis and pan-caspase inhibitor Z-VAD-fink (Enzo Life Science; final concentration 50 μM) and the necroptosis inhibitor Necrostatin-1 (Nec-1; Enzo Life Science; final concentration 5 μM) were used for comparison. Control wells were established with vehicle only (DMSO), with and without treatment with TNF-alpha to induce apoptosis. Cells were incubated, and cell survival was detected and quantified as described in Example B.1.

Series [1] relates to C57BL/6 mice. Kind of series: Liver ischemia-reperfusion injury model (Example C.1). In kind it is in vivo, mouse. Conditions: single i.p. dose 10 mg/Kg. As to the method: FIG. 2: Efficacy of a compound disclosed herein in an animal model of liver IRI. […] The “Sham” bar represents the data from control animals that were treated to the same protocol but without atraumatic clipping. Errors shown are SEM. Significant differences are seen between IRI+vehicle compared to IRI+Cmpd, as well as between IRI+vehicle compared to Sham+vehicle.
Briefly, to test such utility of compounds disclosed herein, ischemia is induced in the liver of 6-8 week old C57BL/6 mice (Charles River) by midline laparotomy whereby the blood supply to the left and median lobes of the liver is interrupted via atraumatic clipping for 90 min, followed by reperfusion for a period of 24 h. After reperfusion, but prior to final abdominal closure, animals are treated with a single i.p. dose of the compound to be tested (10 mg/Kg), or with vehicle (DMSO) as negative control. […] The “Sham” bar represents the data from control animals that were treated to the same protocol but without atraumatic clipping.

For series [2], the system named is C57BL/6 mice. Nature of the series: Kidney ischemia-reperfusion injury model (Example C.2). The series is classed as in vivo, mouse. Conditions: dose of both 1 and 10 mg/kg, compared to vehicle control, FIG. 3. As to the method:
FIG. 3: Efficacy of a compound disclosed herein in an animal model of kidney IRI.
Briefly, to test such utility of compounds disclosed herein, ischemia is induced in the kidney of 6-8 week old C57BL/6 mice by interruption of the blood supply to the kidney via reversible clipping of the Arteria renalis for 30 min, followed by reperfusion for a period of 24 h. Mice are treated with compound (or vehicle control) generally as described in Example C.1 at 1 hour prior to and four hours after abdomal closure and once daily over a period of 14 days. Markers to be investigated for IRI of kidney include […] creatinine levels in the serum along with histopathological analysis.

Series [3] deals with C57BL/6 mice. Nature of the series: Traumatic brain injury, controlled cortical impact model (Example C.5). The series is classed as in vivo, mouse. The note with it: compared to vehicle control, 24 h after CCI, FIG. 4. The protocol: FIG. 4: Efficiency of a compound disclosed herein in an animal model of traumatic brain injury.
Briefly, to test such utility of compounds disclosed herein, male C57BL/6 mice are anesthetised prior to the induction of trauma. Core body temperature is maintained at 37° C. using a feedback-controlled heating pad connected to a rectal probe. To induce trauma, a craniotomy is prepared over the right parietal cortex. Controlled cortical impact (CCI) is delivered perpendicular to the surface of the brain with a custom-made CCI applicator for mice using the following parameters: 8 m/s velocity, 3 mm diameter, 1 mm brain displacement and 150 ms duration. Following CCI, the skull is closed by affixing the removed bone flap using veterinary-grade tissue glue (Vetbond, 3M, St. Paul, Minn.). Compounds are administered at 1 mg/Kg or 10 mg/Kg (dissolved in 40% PEG) 15 minutes after TBI induction and 40% PEG is included as vehicle control. The animals are recovered from anesthesia in an incubator heated to 33° C. Animals are sacrificed and the brain is removed 24 h after CCI and immediately frozen on crushed dry ice and stored at −80° C. […] The sections are stained with cresyl violet for quantifying the area of contused brain, and contusion volume is calculated and the effect of the compounds tested observed following analysis of such data.

The test system of series [4] is human neuroblastoma cell line SH-SY5Y. Kind of series: Inhibition of BSO-induced non-apoptotic cell death (SH-SY5Y/BSO, Example B.1). The series is classed as cell-based. The note with it: BSO-induced non-apoptotic cell death, SH-SY5Y cells, 50 μM BSO, 72 hours. An excerpt:
L-Buthionine sulfoximine (BSO) is a well-known glutathione (GSH) depletory, which inhibits gamma-glutamyl-cysteine-synthetase, the enzyme catalyzing the rate-limiting step in GSH biosynthesis. The human neuroblastoma cell line SH-SY5Y is sensitive to BSO-induced intracellular glutathione depletion, which causes high levels of reactive oxygen species (ROS) and cellular stress mimicking cellular conditions following ischemia (cf., e.g., Yamada et al., Neurochem. Int. 59:1003-9 (2011)).
Compounds disclosed herein were evaluated for their ability to promote cell survival upon administration of a lethal dose of BSO to cell-culture medium. […] After incubation, cell survival was detected using the live/dead cell assay AquaBluer™ (MultiTarget Pharmaceuticals) and quantified using a fluorescence plate reader (excitation filter: 530-560 nm/emission filter: 590 nm) (SpectraMax M4; Molecular Devices). Fluorescence data so obtained was normalised to the percentage of surviving cells and IC50 values calculated using the GraphPad Prism (GraphPad Software, Inc) software package.

Series [5] has as its system mouse hippocampal cell line (Ht22). Kind of series: Inhibition of glutamate-induced non-apoptotic cell death (Ht22/GLU, Example B.2). The series is classed as cell-based. The note with it: HT-22, glutamate-induced non-apoptotic cell death, Ht22 cells, read-out: Ht22/GLU. The text has this: Glutamate toxicity is conferred on cells from the mouse hippocampal cell line (Ht22) by inhibition of the cysteine/glutamate antiporter, System xc-, leading to impaired cysteine uptake and subsequent GSH depletion. This model is frequently used for mimicking glutathione depletion following oxidative stress in stroke, brain trauma and other neurodegenerative diseases and cellular conditions following ischemia (for example: van Leyen et al, J. Neurochem. 92:824-30 (2005)).
Compounds disclosed herein were evaluated for their ability to promote cell survival upon administration of a lethal dose of glutamate (GLU) to the cell-culture medium.
Briefly, Ht22cells (ATCC or Invitrogen) were propagated DMEM supplemented with 10% FBS/1% Penicillin-Streptomycin, and then seeded onto 96-well plates at a concentration of 2,000 cells/well in 100 μL of MEDIA, simultaneously with glutamate (Sigma Aldrich) to a final concentration of 5 mM, together with increasing concentrations of the compound to be tested (0.5 pM to 100 μM), and the plates incubated at 37° C./5% CO2 for 72 hours. Compound dilutions were prepared from 10 mM stocks dissolved in DMSO and diluted in media. Cells treated with glutamate alone were used as negative control and alpha-tocopherol (Sigma Aldrich) was used as positive control. Compound concentrations were tested in triplicate. After incubation, cell survival was detected and quantified as described in Example B.1.

In the next series the test system is Pfa1 cells. Nature of the series: Inhibition of non-apoptotic cell death after tamoxifen-induced GPx4 knockout (Pfa1/TAM, Example B.4). In kind it is cell-based, mouse. The note with it: Mus musculus, tamoxifen-induced GPx4 knockout, Pfa1 cells. An excerpt: To combat high intracellular ROS levels, mammalian cells have evolved an intricate network of ROS scavenging in cells, in which the thioredoxin and glutathione (GSH) dependent systems prevail. […] Knockout of GPx4 in neurons causes massive neurodegeneration in cortical, cerebellar and hippocampal neurons underscoring the high relevance of ROS-induced cell death signaling in the brain. Briefly, immortalised fibroblasts from these mice were made to contain tamoxifen-inducible CreERT2, which catalyzes the functional ablation of both copies of GPx4 and resulting in a complete knockout of GPx4, a massive ROS burst, and cell death in cell culture. These cells (Pfa1 cells) were used to characterize compounds disclosed herein, whereby tamoxifen (TAM) was given on day 0 along with the compound under test, and 72 hours later cell survival was evaluated using AlamarBlue.

Series [6] can be described thus: Cellular toxicity, Pfa1 cells without TAM (Example B.5). Conditions: mouse, cellular toxicity, read-out: TC50 (the source's name). In kind it is cell-based. An excerpt: An estimate of the toxicity for compounds disclosed herein was obtained by using the same assay as described in Example B.4, but without the addition of TAM. […] Such TC50 values obtained for certain compounds disclosed herein, together with an approximate therapeutic window (estimated by dividing each TC50 by the corresponding IC50 determined from example B.4) are shown in Table 3 and Table 4.

`Clc1cccc(CNC2=Nc3ccccc3NC23CCNCC3)c1` [N-2]: the “Percentage cell survival after TNF-alpha-induced apoptosis” value in the series with SH-SY5Y cells is listed as “Non-inhibition of apoptotic cell-death”. For the same compound, the “serum marker for liver cell damage GPT” value in the series with C57BL/6 mice [1] (liver IRI, compared to vehicle control, FIG. 2A) was “significant reduction”. Further, the “serum marker for liver cell damage GOT” value in the series with C57BL/6 mice [1] (liver IRI, compared to vehicle control, FIG. 2B) was “significant reduction”. For the same compound, the “serum GPT and GOT, IRI+Cmpd compared to Sham+vehicle” value with C57BL/6 mice [1] (FIG. 2) was “No significant difference”. Moreover, the “survival of mice suffering kidney-ischemic reperfusion injury” value in the series on C57BL/6 mice [2] is given as “Improved survival”. Also, the “contusion volume in the brains of mice following traumatic brain injury” value with C57BL/6 mice [3] was “trend of a (non-significant) positive effect”.

Take `Clc1cccc(CNC2=Nc3ccccc3NC23CCCNCC3)c1` (centres unmarked) [N-185]: the figures for the IC50 (in series [4]; in series [5]; in the series on Pfa1 cells) were below 50 nM, below 500 nM and below 200 nM, respectively. Moreover, in series [6], the CC50 is 1000 to 2000 nM.

As to `O=S1(=O)CCC2(CC1)Nc1ccccc1N=C2NCc1cccc(Cl)c1` [O/S-370], the IC50 in series [4] was below 1000 nM; in series [5], below 5000 nM; with Pfa1 cells it was below 2000 nM. Besides, in series [6], the CC50 lay in the range of 50000 to 100000 nM.
